Experimental findings from patent US10105367B2, “Therapeutic thiophene-, furan-, and pyridine-fused azolopyrimidin-5-(6h)-ones” (Dart Neuroscience (Cayman) Ltd., priority 2012, dated 2018) are described below.

Structures are written as SMILES.

The target in the first experiment is human PDE1B (Homo sapiens (Human), UniProt Q01064). Kind of experiment: PDE1B inhibitory assay (IMAP TR-FRET). Particulars: PDE1B pIC50, negative log of half-maximal molar inhibitory concentration; 200 nM FAM-cAMP, Calmodulin, CaCl2. Background: Time-resolved FRET reads energy transfer from a long-lived donor to a nearby acceptor.
Molecule `COc1ccc(Cn2c(=O)n3ncnc3c3c4c(sc32)CN(C(C)C(F)F)CC4)cc1` (stereo not drawn) [Example 151] came in with an IC50 of 100 to 1000 nM.

Consider `COc1ccc(Cn2c(=O)n3ncnc3c3c4c(sc32)N(Cc2ccc(Cl)cc2)CCC4)cc1` [Example 152], for which the half-inhibitory concentration (IC50) is 100 to 1000 nM.

Consider `COc1ccc(Cn2c(=O)n3ncnc3c3c4c(sc32)N(Cc2ccc(Cl)cc2)CCC4)cc1OC` [Example 153], for which the IC50 is 1000 to 10000 nM.

The molecule `COc1ccc(Cn2c(=O)n3ncnc3c3c4c(sc32)N(Cc2cccc(Cl)c2)CCC4)cc1OC` [Example 155] had an IC50 of 1000 to 10000 nM.

`COc1ccc(Cn2c(=O)n3ncnc3c3c4c(sc32)CN(C(=O)C2CCN(C)C2)CC4)cc1` (stereo not drawn) [Example 163] had an IC50 of 100 to 1000 nM.

`COc1ccc(Cn2c(=O)n3ncnc3c3c4c(sc32)N(C(=O)c2ccccc2)CCC4)cc1OC` [Example 176]: the half-inhibitory concentration (IC50) was 1000 to 10000 nM.

Regarding `COc1ccc(Cn2c(=O)n3ncnc3c3c4c(sc32)CN(CC2CNCCO2)CC4)cc1` (stereo not drawn) [Example 180, 6-(4-Methoxybenzyl)-9-(morpholin-2-ylmethyl)-8,9,10,11-tetrahydropyrido[4′,3′:4,5]thieno[3,2-e][1,2,4]triazolo[1,5-c]pyrimidin-5(6H)-one], the half-inhibitory concentration (IC50) fell in the range of 100 to 1000 nM.

Molecule `COc1ccc(Cn2c(=O)n3ncnc3c3c4c(sc32)CN(C(=O)C2CCNC2)CC4)cc1` (stereo not drawn) [Example 181] showed an IC50 of 100 to 1000 nM.

The molecule `COc1ccc(Cn2c(=O)n3ncnc3c3c4c(sc32)CN(CC2CCNCC2)CC4)cc1` [Example 182] yielded an IC50 of 100 to 1000 nM.

The molecule `COc1ccc(Cn2c(=O)n3nccc3c3cc(CN4CCOCC4)sc32)cc1` [Example 183, 4-(4-Methoxybenzyl)-2-(morpholinomethyl)pyrazolo[1,5-c]thieno[3,2-e]pyrimidin-5(4H)-one] had a 50% inhibitory concentration (IC50) of 100 to 1000 nM.

Take `COc1ccc(Cn2c(=O)n3ncnc3c3cc(Br)cnc32)cc1` [Example 185, 9-Bromo-6-(4-methoxybenzyl)pyrido[3,2-e][1,2,4]triazolo[1,5-c]pyrimidin-5(6H)-one]: the half-inhibitory concentration (IC50) was in the range of 100 to 1000 nM.

As for `COc1ccc(Cn2c(=O)n3ncnc3c3ncc(Br)cc32)cc1` [Example 186], the IC50 was 1000 to 10000 nM.

`COc1ccc(Cn2c(=O)n3ncnc3c3ccc(C(OC)OC)nc32)cc1` [Example 187] gave a concentration for half-maximal inhibition (IC50) of 1000 to 10000 nM.

`COc1ccc(Cn2c(=O)n3ncnc3c3nc(Br)cnc32)cc1` [Example 188] registered an IC50 of 100 to 1000 nM.

In the case of `COc1ccc(Cn2c(=O)n3ncnc3c3cc(-c4ccc(OC)nc4)cnc32)cc1` [Example 190], the half-inhibitory concentration (IC50) was 100 to 1000 nM.

For the molecule `COc1ccc(Cn2c(=O)n3ncnc3c3cc(-n4nc(C)ccc4=O)cnc32)cc1` [Example 192, 6-(4-Methoxybenzyl)-9-(3-methyl-6-oxopyridazin-1(6H)-yl)pyrido[3,2-e][1,2,4]triazolo[1,5-c]pyrimidin-5(6H)-one], the 50% inhibitory concentration (IC50) was 100 to 1000 nM.

Molecule `COc1ccc(Cn2c(=O)n3ncnc3c3cc(N4CCN(C5CC5)CC4)cnc32)cc1` [Example 193, 9-(4-Cyclopropylpiperazin-1-yl)-6-(4-methoxybenzyl)pyrido[3,2-e][1,2,4]triazolo[1,5-c]pyrimidin-5(6H)-one] returned a half-maximal inhibitory concentration (IC50) of 100 to 1000 nM.

The molecule `COc1ccc(Cn2c(=O)n3ncnc3c3cc(N[C@H]4CCCC[C@@H]4N)cnc32)cc1` [Example 194] registered an IC50 of 1000 to 10000 nM.

In turn, `COc1ccc(Cn2c(=O)n3ncnc3c3nc(N(C)C4CCN(C)CC4)cnc32)cc1` [Example 195] gave an IC50 of 1000 to 10000 nM.

Take `COc1ccc(Cn2c(=O)n3ncnc3c3nc(N(C)CCN(C)C)cnc32)cc1` [Example 196]: the IC50 lay within 1000 to 10000 nM.

The molecule `COCCN1CCN(c2cnc3c(c2)c2ncnn2c(=O)n3Cc2ccc(OC)cc2)CC1` [Example 197] showed a half-inhibitory concentration (IC50) of 100 to 1000 nM.

Take `COc1ccc(Cn2c(=O)n3ncnc3c3cc(N4CCC(N(C)C)C4)cnc32)cc1` (stereo not drawn) [Example 198]: the half-inhibitory concentration (IC50) lay within 100 to 1000 nM.

Regarding `COc1ccc(Cn2c(=O)n3ncnc3c3cc(N4CCC(N(C)C)CC4)cnc32)cc1` [Example 199], the half-inhibitory concentration (IC50) lay in the range of 100 to 1000 nM.

Turning to `COc1ccc(Cn2c(=O)n3ncnc3c3cc(N(C)C4CCOCC4)cnc32)cc1` [Example 200], the IC50 is 100 to 1000 nM.

As to `COc1ccc(Cn2c(=O)n3ncnc3c3cc(N4C[C@@H](C)O[C@@H](C)C4)cnc32)cc1` [Example 201], the IC50 lay within 100 to 1000 nM.

For `COc1ccc(Cn2c(=O)n3ncnc3c3cc(N(C)CCCN(C)C)cnc32)cc1` [Example 202], the half-inhibitory concentration (IC50) fell in the range of 1000 to 10000 nM.

Staying with this experiment, now noted: negative log of half-maximal molar inhibitory concentration; 200 nM FAM-cAMP, Calmodulin, CaCl2.
Turning to `COc1ccc(Cn2c(=O)n3ncnc3c3c4c(sc32)CN(CC2CCOCC2)CC4(F)F)c(F)c1` [Example 156], the “PDE1B pIC50” value is given as above 7.

Consider `O=C(c1cnccn1)N1CCc2c(sc3c2c2ncnn2c(=O)n3Cc2ccc(Cl)cc2)C1` [Example 157, 6-(4-Chlorobenzyl)-9-(pyrazine-2-carbonyl)-8,9,10,11-tetrahydropyrido[4′,3′:4,5]thieno[3,2-e][1,2,4]triazolo[1,5-c]pyrimidin-5(6H)-one], for which the “PDE1B pIC50” value is listed as above 7.

As to `COc1ccc(Cn2c(=O)n3ncnc3c3c4c(sc32)CN(C(=O)C2CC2)CC4)cc1` [Example 159], the “PDE1B pIC50” value is reported as above 7.

`COc1ccc(Cn2c(=O)n3ncnc3c3c4c(sc32)CN(S(C)(=O)=O)CC4)cc1` [Example 162]: the “PDE1B pIC50” value is reported as above 7.

Consider `O=C(C1CC1)N1CCc2c(sc3c2c2ncnn2c(=O)n3Cc2ccc(Cl)cc2F)C1` [Example 164], for which the “PDE1B pIC50” value is above 7.

On to `COc1ccc(Cn2c(=O)n3ncnc3c3c4c(sc32)CN(C(=O)C2CCOC2)CC4(F)F)cc1` (stereo not drawn) [Example 166], for which the “PDE1B pIC50” value is above 7.

Take `COc1ccc(Cn2c(=O)n3ncnc3c3c4c(sc32)CN(C(=O)C2CCOC2)CC4)c(F)c1` (stereo not drawn) [Example 167]: the “PDE1B pIC50” value was above 7.

For `COc1ccc(Cn2c(=O)n3ncnc3c3c4c(sc32)CN(C(=O)C2CC2)CC4)c(F)c1` [Example 168], the “PDE1B pIC50” value is above 7.

Take `COc1ccc(Cn2c(=O)n3ncnc3c3c4c(sc32)CN(C(=O)[C@@H]2CCOC2)CC4)cc1` [Example 169]: the “PDE1B pIC50” value is listed as above 7.

For `COc1ccc(Cn2c(=O)n3ncnc3c3c4c(sc32)CN(C(=O)C2CCOC2)CC4)cc1` (stereo not drawn) [Example 170], the “PDE1B pIC50” value was above 7.

Turning to `COc1ccc(Cn2c(=O)n3ncnc3c3c4c(sc32)N(C(=O)C2CC2)CCC4)cc1` [Example 174], the “PDE1B pIC50” value is above 7.

Regarding `COc1ccc(Cn2c(=O)n3ncnc3c3c4c(sc32)N(C(=O)C2CCOC2)CCC4)cc1` (stereo not drawn) [Example 175], the “PDE1B pIC50” value is given as above 7.

As for `COc1ccc(Cn2c(=O)n3ncnc3c3c4c(sc32)CN(c2ccccn2)CC4)cc1` [Example 179, 6-(4-Methoxybenzyl)-9-(pyridin-2-yl)-8,9,10,11-tetrahydropyrido[4′,3′:4,5]thieno[3,2-e][1,2,4]triazolo[1,5-c]pyrimidin-5(6H)-one], the “PDE1B pIC50” value is recorded as above 7.

Take `COc1ccc(Cn2c(=O)n3nccc3c3cc(CN4C[C@@H](C)O[C@@H](C)C4)sc32)cc1` [Example 184]: the “PDE1B pIC50” value is given as above 7.

Turning to `COc1ccc(Cn2c(=O)n3ncnc3c3cc(-c4ccc(OC)c(OC)c4)cnc32)cc1` [Example 189, 9-(3,4-Dimethoxyphenyl)-6-(4-methoxybenzyl)pyrido[3,2-e][1,2,4]triazolo[1,5-c]pyrimidin-5(6H)-one], the “PDE1B pIC50” value is listed as above 7.

As to `COc1ccc(Cn2c(=O)n3ncnc3c3cc(-c4cccnc4OC)cnc32)cc1` [Example 191], the “PDE1B pIC50” value is reported as above 7.

One may read the IC50 as the concentration needed to halve the response being measured.
